We go through five compounds from patent US10428086B2, “Solvated crystal form of rifaximin, production, compositions and uses thereof” (ALFASIGMA S.p.A., priority 2014, dated 2019).

Broadly, the Cmax is the highest concentration seen after dosing.

Data set [1] in a line: Determination of intrinsic dissolution (European Pharmacopeia Ed. 7.0, 2.9.3). The conditions noted are these: for Intrinsic dissolution: powder of Example 5, Eur. Pharm. 7.0, 2.9.3. Format: physicochemical. As for the experimental part: The determination of the intrinsic dissolution of the powder, which was obtained according to what is described in Example 5, was carried out according to European Pharmacopeia Ed. 7.0, 2010, 2.9.3, page 256, (the disclosure of which is incorporated herein by reference in its entirety), comparing the new crystal of rifaximin τ and amorphous rifaximin and rifaximin polymorph β.

Data set [2] in a line: PK / bioavailability study on dogs. The conditions noted are these: single oral capsule 100 mg/kg, plasma; for tmax: median values. The class given is in vivo, Beagle male dogs. The procedure:
A bioavailability study of rifaximin τ in comparison with rifaximin amorphous and rifaximin polymorph alpha has been carried out on 4 Beagle male dogs, by feeding them a dose of 100 mg/kg of one of the polymorphs or amorphous form. Each animal received a single oral capsule of rifaximin τ, amorphous rifaximin, and rifaximin α with a washout period of seven days between the administration of each form to the same animal. Doses were administered with a […] gelatine capsule followed by 10 ml of drinking water.
Blood was taken at 6 time points up to 24 hours post dose and it was collected into tubes containing lithium heparin anticoagulant.
The plasma has been assayed for rifaximin on the validated LC-MS/MS (Liquid Chromatography-Mass Spectrometry/Mass Spectrometry) method and the maximum plasma concentration observed (Cmax), the time to reach the (Cmax), (tmax), and the area under the concentration-time curve (AUC) have been calculated.

Data set [3] is described as follows: Dissolution rate at neutral pH (phosphate buffer pH 6.8). The class given is physicochemical. Particulars: for Concentration: 500 mg in 750 ml phosphate buffer pH 6.8, 30°C, 250 rpm. The procedure:
An amount of 500 mg of rifaximin τ, 500 mg of rifaximin polymorph α, and 500 mg of amorphous rifaximin were suspended, respectively, in 750 ml of phosphate buffer at pH 6.8 at a temperature of 30±0.5° C. The solutions were stirred for 120 minutes at a stirring rate of 250 rpm. Samples with equal volume were taken at fixed time intervals, filtered and analyzed by spectrophotometer at a wavelength of 430 nm. The rifaximin concentration in the samples was calculated compared to a solution having a known concentration.

For data set [4] the following is noted: per oral route; cited from earlier work.
A short description of data set [5]: Stability in different humidity environments (XRPD). Format: physicochemical. The conditions noted are these: for Stability of crystal form (XRPD pattern after exposure): 10 days; for Stability on exposure to humidity: humidity levels about 10% to about 90%, about 1 hour to about 10 days. From the text:
a) The rifaximin τ obtained according to Example 1 was exposed at room temperature to a humidity level of 11%, obtained by means of a saturated solution of LiCl, for a period of time of 10 days.
b) Another crystal of rifaximin τ was exposed to a humidity level of 84%, obtained with a supersaturated aqueous solution of KCl for 10 days.

With `CO[C@H]1/C=C/O[C@@]2(C)Oc3c(C)c(O)c4c(O)c(c5c(nc6cc(C)ccn65)c4c3C2=O)NC(=O)/C(C)=C\C=C\[C@H](C)[C@H](O)[C@@H](C)[C@@H](O)[C@@H](C)[C@H](OC(C)=O)[C@@H]1C` [Amorphous rifaximin, rifaximin], the “Effect of added DEGME on measured dissolved rifaximin” value in data set [1] (addition of 0.1 ml and 1.25 ml DEGME to the solution contacting the tablet) was “does not change the measured value of the dissolved rifaximin”. The Intrinsic dissolution in data set [1] was 0.131 mg/min/cm^2. Besides, the “AUC 0-8h” value in data set [2] came out at 1318.02 ± 1975.04 ng·h/mL. Besides, the “AUC 0-tlast” value in data set [2] amounted to 2337.16 ± 3223.76 ng·h/mL. Moreover, the Cmax in data set [2] was determined as 279.79 ± 378.41 ng/mL. Besides, the tmax in data set [2] is given as 3 h. The Concentration was 14400 ng/mL in data set [3] (5 min); 44000 ng/mL in data set [3] (15 min); 28700 ng/mL in data set [3] (30 min); 11000 ng/mL in data set [3] (60 min); 9100 ng/mL in data set [3] (120 min).

On to `CCOCCOCCO` [DEGME, 2-(2-ethoxyethoxy)ethanol], for which the “NOAEL (No Observed Adverse Effect Level)” value in data set [4] is “higher than 160 mg/kg of body mass”.

On to `CO[C@H]1/C=C/O[C@@]2(C)Oc3c(C)c(O)c4c(O)c(c5c(nc6cc(C)ccn65)c4c3C2=O)NC(=O)/C(C)=C\C=C\[C@H](C)[C@H](O)[C@@H](C)[C@@H](O)[C@@H](C)[C@H](OC(C)=O)[C@@H]1C` [Rifaximin polymorph β, rifaximin], for which, in data set [1], the Intrinsic dissolution stood at 0.016 mg/min/cm^2.

Turning to `CO[C@H]1/C=C/O[C@@]2(C)Oc3c(C)c(O)c4c(O)c(c5c(nc6cc(C)ccn65)c4c3C2=O)NC(=O)/C(C)=C\C=C\[C@H](C)[C@H](O)[C@@H](C)[C@@H](O)[C@@H](C)[C@H](OC(C)=O)[C@@H]1C` [Rifaximin α, rifaximin], in data set [2], the “AUC 0-8h” value turned out to be 7.20 ± 4.00 ng·h/mL. For the same compound, the “AUC 0-tlast” value in data set [2] turned out to be 16.86 ± 13.99 ng·h/mL. This compound also had a Cmax in data set [2] of 2.84 ± 1.26 ng/mL. This compound also gave a tmax in data set [2] of 1 h. For the same compound, the Concentration in data set [3] (5 min) is 1050 ng/mL; in data set [3] (15 min), 3260 ng/mL; in data set [3] (30 min), 4230 ng/mL; in data set [3] (60 min) it was 4120 ng/mL; in data set [3] (120 min), 3890 ng/mL.

`CO[C@H]1/C=C/O[C@@]2(C)Oc3c(C)c(O)c4c(O)c(c5c(nc6cc(C)ccn65)c4c3C2=O)NC(=O)/C(C)=C\C=C\[C@H](C)[C@H](O)[C@@H](C)[C@@H](O)[C@@H](C)[C@H](OC(C)=O)[C@@H]1C` [Rifaximin τ, rifaximin]: the “AUC 0-8h” value was 0 to 35 ng·h/mL in data set [2] (listed as rifaximin τ) and 19.93 ± 10.25 ng·h/mL in data set [2] (listed as τ). For the same compound, the entries for the “AUC 0-tlast” value in data set [2] (listed as rifaximin τ) and in data set [2] (listed as τ) were 20 to 325 ng·h/mL and 150.54 ± 172.55 ng·h/mL, respectively. Besides, the peak concentration (Cmax) in data set [2] (listed as rifaximin τ) was 0 to 35 ng/mL; in data set [2] (listed as τ) it was 15.70 ± 18.63 ng/mL. For the same compound, the values for the tmax in data set [2] (listed as rifaximin τ) and in data set [2] (listed as τ) were 3 to 7 h and 5 h, respectively. Further, the “Stability of crystal form (XRPD pattern after exposure)” value in data set [5] (humidity level 11% (saturated LiCl), room temperature) is recorded as “correspond to the X-ray diffraction pattern of FIG. 1”; in data set [5] (humidity level 84% (supersaturated KCl)) it was “correspond to the X-ray diffraction pattern of FIG. 1”. Also, the “Stability on exposure to humidity” value in data set [5] was “does not alter its chemical structure”; in data set [5] (listed as rifaximin τ), “does not transform its crystallographic parameters and X-ray diffractogram”. Moreover, the Concentration in data set [3] (5 min) was 21680 ng/mL; in data set [3] (15 min) it was 57680 ng/mL; in data set [3] (30 min), “higher than 90 μg/ml”; in data set [3] (60 min) it was 43140 ng/mL; in data set [3] (120 min), 14930 ng/mL. Besides, the “Concentration relative to rifaximin polymorph α” value in data set [3] (aqueous solution) is on record as “about 25 times”. Also, the “Concentration relative to amorphous rifaximin” value in data set [3] (pH 6.8, after about 30 minutes) was “about five times higher”. Moreover, in data set [3] (pH 6.8, after about 30 minutes), the “Concentration relative to rifaximin polymorph α or β” value was “about twenty times higher”.
